Measured values from US11149066B2, “Thrombospondin 1-binding peptide” (DAIICHI SANKYO COMPANY, LIMITED, priority 2016, dated 2021).
Positions of bridges follow the written chain, without caps; N, C: chain ends. Non-standard residues stand in square brackets, D forms with d. Residues, ends and D or L forms follow the SMILES beside them. 2Nal = N[C@@H](Cc1ccc2ccccc2c1)C(=O)O; Nle = CCCC[C@H](N)C(=O)O

Key:
[1] = biological target: T1, human TSP1 (Homo sapiens, UniProt P07996); assay: Cell adhesion inhibition assay (HUVEC adhesion to TSP1-coated plate); assay type: cell-based; settings: HUVEC adhesion to human platelet thrombospondin-coated plate, 2.5 hours, CellTiter-Glo; read-out: Cell adhesion IC50
Outline: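 Plates coated overnight at 4 °C with 10 μg/mL human platelet TSP1 in TBS + 2 mM CaCl2, blocked with Lipidure, then preincubated 15–30 min with samples in DMEM/0.5% BSA. HUVECs (10000 cells/well) adhered for 2.5 h at 37 °C; adherent cells quantified by CellTiter-Glo luminescence and IC50 (nM) calculated.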
Target sequence in this assay (P07996 19-1170 limits assumed): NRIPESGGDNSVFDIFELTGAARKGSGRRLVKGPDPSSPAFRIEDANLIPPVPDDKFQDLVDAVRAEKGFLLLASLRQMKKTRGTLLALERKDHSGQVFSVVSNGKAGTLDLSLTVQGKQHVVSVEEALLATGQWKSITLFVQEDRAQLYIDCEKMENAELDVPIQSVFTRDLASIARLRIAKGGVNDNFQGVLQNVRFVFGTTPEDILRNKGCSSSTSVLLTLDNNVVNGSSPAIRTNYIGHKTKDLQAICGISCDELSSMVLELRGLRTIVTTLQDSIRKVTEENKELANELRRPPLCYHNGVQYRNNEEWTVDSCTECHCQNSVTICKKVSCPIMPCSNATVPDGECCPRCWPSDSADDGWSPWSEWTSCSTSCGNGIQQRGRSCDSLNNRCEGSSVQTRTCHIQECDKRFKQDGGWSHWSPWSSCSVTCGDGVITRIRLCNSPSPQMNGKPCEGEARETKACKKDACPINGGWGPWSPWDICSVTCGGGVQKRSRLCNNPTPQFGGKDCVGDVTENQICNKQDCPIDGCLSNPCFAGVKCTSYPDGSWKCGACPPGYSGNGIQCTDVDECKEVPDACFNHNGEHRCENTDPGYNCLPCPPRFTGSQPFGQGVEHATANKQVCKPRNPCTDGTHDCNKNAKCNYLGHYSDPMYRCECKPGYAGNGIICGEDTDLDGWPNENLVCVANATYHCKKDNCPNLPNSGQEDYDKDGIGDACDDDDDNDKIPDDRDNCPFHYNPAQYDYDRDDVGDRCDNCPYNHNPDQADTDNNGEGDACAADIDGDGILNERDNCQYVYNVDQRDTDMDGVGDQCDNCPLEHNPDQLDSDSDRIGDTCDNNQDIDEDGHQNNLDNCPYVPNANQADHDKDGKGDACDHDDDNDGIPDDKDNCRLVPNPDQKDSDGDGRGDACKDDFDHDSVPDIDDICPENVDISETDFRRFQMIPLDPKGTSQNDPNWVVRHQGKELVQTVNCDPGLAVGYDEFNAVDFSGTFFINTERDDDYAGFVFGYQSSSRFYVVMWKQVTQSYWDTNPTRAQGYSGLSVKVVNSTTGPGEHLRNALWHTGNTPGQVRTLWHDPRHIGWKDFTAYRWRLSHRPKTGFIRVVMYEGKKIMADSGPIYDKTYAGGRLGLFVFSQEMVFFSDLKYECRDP

[2] = biological target: T1, human TSP1; assay: Interaction analysis by SPR (Biacore T200); assay type: binding; settings: single-cycle kinetics, 25° C., KD from ka and kd
Experimental: (Test Example 2) Interaction Analysis by SPR
Interaction analysis by SPR was performed using Biacore T200 (produced by GE Healthcare).
I. Immobilization of Recombinant-hTSP1
First, 500 μM NiCl2 was injected over an NTA-Chip (produced by GE Healthcare, BR100532) at a flow rate of 5 μL/min. for 1 minute to thereby activate NTA groups. Then, an EDC/NHS mixture was injected at a flow rate of 10 μL/min. for 7 minutes to thereby activate the carboxyl groups of dextran. Recombinant-hTSP1 was injected at a flow rate of 10 μL/min. for 7 minutes to immobilize the TSP1 on the substrate surfaces with activated NTA and carboxyl groups. Ethanolamine was injected at a flow rate of 10 μL/min. for 7 minutes to thereby deactivate unreacted, activated carboxyl groups.
The immobilization buffer used was prepared by diluting 10×HBS-P+(produced by GE Healthcare, BR100671) to 1-fold and adding 5 mM CaCl2.
The reagents EDC/NHS/ethanolamine used were included in the Amine-coupling kit (BR100050) commercially available from GE Healthcare.
The measurement buffer was prepared based on the following composition profile:
The measurement was performed in the following steps.
For the purpose of equilibrating substrate surfaces, the measurement buffer was injected under the following conditions:
contact time: 60 sec., dissociation time: 120 sec., flow rate: 50 μL/min., temperature: 25° C.
The injection under the same conditions was repeated five times to ensure equilibration.
Since Biacore T200 is highly responsive to change in DMSO concentrations, DMSO solutions were sequentially injected at concentrations of 4%, 4.4%, 4.8%, 5.2%, 5.6%, and 6% to correct for DMSO effects.
The method adopted for sample measurement was a single-cycle kinetics method which is effective for samples showing low dissociative behavior. The advantage of this method is that since sample solutions at different concentration regions are injected in the same cycle, the influence between different cycles in association with low dissociation can be ignored in the analysis.
A 3-fold diluted series of sample solutions were prepared in five concentrations (100, 33, 11, 3.7 and 1.2 nM), and sequentially injected at a flow rate of 50 μL/min. for 3 minutes in the order from lowest to highest concentration. After the highest concentration of diluted solution was injected, a dissociation time of 20 to 30 minutes was spent.
Before samples were measured, the measurement buffer was injected alone under the same conditions to establish a baseline.
The analysis was conducted using the evaluation software provided with Biacore T100 and T200. A DMSO correction curve obtained by solvent correction measurements was applied for the analysis. Kinetics fitting was done on the difference data obtained by subtracting the baseline data from sample measurement data.
KD values were calculated based on the association rate constant (ka) and dissociation rate constant (kd).
Target sequence in this assay (P07996 19-1170): as the sequence (P07996 19-1170 limits assumed) above

[3] = test system: C57BL/6 mice; assay: Blood flow improvement tests (femoral artery/vein ligation and excision, laser Doppler); assay type: in vivo; settings: after 7 days of surgery; for % change (vs. vehicle): blood flow ratio ischemia/nonischemia; for %, ischemia/nonischemia: blood flow ratio of ischemic limb to non-ischemic limb, laser Doppler
Text: (Test Example 3) Blood Flow Improvement Tests
Seven to nine-week-old male C57BL/6 mice were purchased from Charles River Laboratories Japan Inc., and acclimated over one week by feeding with a FR-2 solid diet (produced by Funabashi Farm Co., Ltd.). The rearing facility switched between light and dark modes in a 12-hour cycle with light turning on at 7 a.m and turning off at 7 p.m. Under isofluorane inhalation anaesthesia, the left thighs of the mice were dissected, and the superficial femoral arteries and veins (from just below the deep femoral arteries to the popliteal artery and vein) were ligated and excised. After animal models were made, the test substances (Compounds 24, 28, 40 to 45, and 58) were each dissolved in a solution of 20 mM lactic acid and 5% (w/v) Lutrol, and intraperitoneally injected into mice once daily.
(Blood Flow Improvement Test 1)
Compound 24 (10 mg/kg)-treated group
(Blood Flow Improvement Test 2)
Compound 28 (10 mg/kg)-treated group
(Blood Flow Improvement Test 3)
Compound 40 (10 mg/kg)-treated group
Compound 41 (10 mg/kg)-treated group
(Blood Flow Improvement Test 4)
Compound 42 (10 mg/kg)-treated group
Compound 43 (10 mg/kg)-treated group
Compound 44 (10 mg/kg)-treated group
Compound 45 (10 mg/kg)-treated group
(Blood Flow Improvement Test 5)
Compound 58 (10 mg/kg)-treated group
Blood flows were measured in ischemic (left) and non-ischemic (right) limbs using a laser Doppler perfusion imager (LDPI; PIM III, Perimed, Inc.). Blood flow values were evaluated by the ratio of ischemic limb flow to non-ischemic limb flow.
Blood flow values from the mice were the lowest immediately after surgery and then gradually recovered. All of the test substances investigated in the animal models of this study improved blood flow recovery after surgery as compared to vehicle treatment. After 7 days of surgery, the blood flows in the test substance-treated groups were higher than in the vehicle-treated mice.

Row | SMILES | IC50 [1] [nM] | Kd [2] [nM] | % change (vs. vehicle) [3] [%] | %, ischemia/nonischemia [3] [%]
1 | CC(C)[C@@H]1NC(=O)[C@H](Cc2c[nH]c3ccccc23)NC(=O)[C@H](CCCCN)NC(=O)[C@H](C(C)C)NC(=O)[C@H](Cc2c[nH]c3ccccc23)NC(=O)[C@H](CC(N)=O)NC(=O)[C@H](CCCNC(=N)N)NC(=O)CNC(=O)[C@H](CO)NC(=O)[C@H](CCCNC(=N)N)NC(=O)[C@H](Cc2ccccc2)NC(=O)CSC[C@@H](C(N)=O)NC1=O [Compound 6] ({CH2CO}-FRSGRNWVKWVC-NH2; thioether N-12) | 27.3 | 0.44 |  | 
2 | CC[C@H](C)[C@@H]1NC(=O)[C@H](Cc2ccc3ccccc3c2)NC(=O)CSC[C@@H](C(N)=O)NC(=O)[C@H](C(C)C)NC(=O)[C@H](Cc2c[nH]c3ccccc23)NC(=O)[C@H](CCCCN)NC(=O)[C@H](C(C)C)NC(=O)[C@H](Cc2c[nH]c3ccccc23)NC(=O)[C@H](CC(N)=O)NC(=O)[C@H](Cc2c[nH]cn2)NC(=O)CNC(=O)[C@H](CO)NC1=O [Compound 42] ({CH2CO}-[2Nal]ISGHNWVKWVC-NH2; thioether N-12) |  | 0.44 | 27.0 | 47.40
3 | CC[C@H](C)[C@@H]1NC(=O)[C@H](Cc2ccc3ccccc3c2)NC(=O)CSC[C@@H](C(N)=O)NC(=O)[C@H](C(C)C)NC(=O)[C@H](Cc2c[nH]c3ccccc23)NC(=O)[C@H](CCCCN)NC(=O)[C@H](C(C)C)NC(=O)[C@H](Cc2c[nH]c3ccccc23)NC(=O)[C@H](CC(N)=O)NC(=O)[C@H](CO)NC(=O)CNC(=O)[C@H](CO)NC1=O [Compound 44] ({CH2CO}-[2Nal]ISGSNWVKWVC-NH2; thioether N-12) | 30.3 |  | 10.5 | 41.25
4 | CCCC[C@@H]1NC(=O)[C@H](Cc2c[nH]c3ccccc23)NC(=O)[C@H](CC(=O)O)NC(=O)[C@H](CCCNC(=N)N)NC(=O)CNC(=O)[C@H](CO)NC(=O)[C@H]([C@@H](C)CC)NC(=O)[C@H](Cc2ccc3ccccc3c2)NC(=O)CSC[C@@H](C(N)=O)NC(=O)[C@H](C(C)C)NC(=O)[C@H](Cc2c[nH]c3ccccc23)NC(=O)[C@H](CCCCN)NC1=O [Compound 45] ({CH2CO}-[2Nal]ISGRDW[Nle]KWVC-NH2; thioether N-12) |  | 0.13 | 76.0 | 65.70

More lines, in order of falling Kd [2], values ahead:

Row | IC50 [1] [nM] | Kd [2] [nM] | SMILES | % change (vs. vehicle) [3] [%] | %, ischemia/nonischemia [3] [%]
5 | 9.2 | 0.13 | CC[C@H](C)[C@@H]1NC(=O)[C@H](Cc2ccc3ccccc3c2)NC(=O)CSC[C@@H](C(N)=O)NC(=O)[C@H](C(C)C)NC(=O)[C@H](Cc2c[nH]c3ccccc23)NC(=O)[C@H](CCCCN)NC(=O)[C@H](C(C)C)NC(=O)[C@H](Cc2c[nH]c3ccccc23)NC(=O)[C@H](CC(N)=O)NC(=O)[C@H](CCCCN)NC(=O)CNC(=O)[C@H](CO)NC1=O [Compound 43] ({CH2CO}-[2Nal]ISGKNWVKWVC-NH2; thioether N-12) | 30.9 | 48.86
6 |  | 0.12 | CC[C@H](C)[C@@H]1NC(=O)[C@H](Cc2ccccc2)NC(=O)CSC[C@@H](C(N)=O)NC(=O)[C@H](C(C)C)NC(=O)[C@H](Cc2c[nH]c3ccccc23)NC(=O)[C@H](CCCCN)NC(=O)[C@H](C(C)C)NC(=O)[C@H](Cc2c[nH]c3ccccc23)NC(=O)[C@H](CC(N)=O)NC(=O)[C@H](CCCCN)NC(=O)CNC(=O)[C@H](CO)NC1=O [Compound 7] ({CH2CO}-FISGKNWVKWVC-NH2; thioether N-12) |  | 
7 |  | 0.12 | CC[C@H](C)[C@@H]1NC(=O)[C@H](Cc2ccc3ccccc3c2)NC(=O)CSC[C@@H](C(N)=O)NC(=O)[C@H](C(C)C)NC(=O)[C@H](Cc2c[nH]c3ccccc23)NC(=O)[C@H](CCCCN)NC(=O)[C@H](C(C)C)NC(=O)[C@H](Cc2c[nH]c3ccccc23)NC(=O)[C@H](CC(N)=O)NC(=O)[C@H](CCCNC(=N)N)NC(=O)CNC(=O)[C@H](CO)NC1=O [Compound 24] ({CH2CO}-[2Nal]ISGRNWVKWVC-NH2; thioether N-12) | 4.9 | 41.20
8 | 15.9 | 0.091 | CCCC[C@@H]1NC(=O)[C@H](Cc2c[nH]c3ccccc23)NC(=O)[C@H](CC(=O)O)NC(=O)[C@H](CCCCN)NC(=O)CNC(=O)[C@H](CO)NC(=O)[C@H]([C@@H](C)CC)NC(=O)[C@H](Cc2ccc3ccccc3c2)NC(=O)CSC[C@@H](C(N)=O)NC(=O)[C@H](C(C)C)NC(=O)[C@H](Cc2c[nH]c3ccccc23)NC(=O)[C@H](CCCNC(=N)N)NC1=O [Compound 58] ({CH2CO}-[2Nal]ISGKDW[Nle]RWVC-NH2; thioether N-12) | 85.5 | 69.00
